One data set deals with T1, human mGlu3 (Homo sapiens, UniProt Q14832).
T1 construct: expressed in transfected cells; host or cells: HEK-293
Kind of data set: mGlu3 GIRK cell-based thallium flux assay. The settings on record: HEK-293 co-expressing human mGlu3 and GIRK; EC80 glutamate. How it is done:
(§1) Human embryonic kidney (HEK-293) cell lines stably co-expressing human mGlu2 and G protein-coupled inwardly rectifying potassium (GIRK) channels, or human mGlu3 and GIRK, were used for in vitro evaluation of compound activity through thallium flux assays.
(§2) The day before the assay, cells from cell lines co-expressing human mGlu2 or mGlu3 and GIRK, as described above, were plated in black-walled, clear-bottomed, amine-coated 384-well plates in 20 μL of assay medium (DMEM containing 10% FBS, 1 M HEPES, 100 mM sodium pyruvate) at a density of 15,000 cells/well and stored at 37° C. in the presence of 5% CO2. On the day of the assay, medium was removed and replaced with assay buffer (Hanks balanced salt solution, 20 mM HEPES, 4.16 mM sodium bicarbonate, pH 7.2) containing 0.328 μM FluoZin-2 AM dye. The dye was initially made up as a 2.85 mM stock in DMSO and diluted 1:1 with 10% pluronic acid before adding to the buffer. Cells were then incubated for one hour at room temperature. After dye-loading, excess extracellular dye was removed by exchanging the dye solution with assay buffer resulting in 20 μL of buffer in each well. After a ten-minute rest period, cell plates were loaded into a Hamamatsu μCell kinetic imaging plate reader to monitor fluorescence using 470 nm excitation and 540 nm emission settings.
(§3) After collection of baseline fluorescence, 20 μL of compound solution prepared as a concentration response series in assay buffer was added. The concentration series was created from a 10 mM DMSO compound stock by performing a 1:3 serial dilution in DMSO followed by a 1:167 dilution of each DMSO solution in buffer. […] Multiple reference wells containing no compound received either no glutamate (for a baseline reference), EC80 glutamate, or ECmax glutamate (for normalization to maximum response). Signal was monitored an additional 2.5 minutes after the glutamate addition. Fluorescence was measured throughout the experiment at a frequency of 1 measurement per every 2 seconds before the glutamate addition and a frequency of 1 measurement per every 1 second after the glutamate addition. Each compound concentration series occurred one time in each plate, and replicates from two or three plates were used in each experimental run. Thallium solutions were handled and disposed of according to guidelines from the Vanderbilt University Chemical Safety department.
(§4) Data were normalized using a static ratio function (F/F0) by dividing every fluorescent measurement by the initial fluorescent value for the corresponding well. The increase in signal resulting from the glutamate/thallium addition of the second add was measured by determining the slope from 3 seconds to 13 seconds after the addition. The average of all baseline slopes (no compound, no glutamate) was determined and this value was subtracted from all other slope values. The average of all ECmax slopes was determined and this value was used to normalize the baseline-corrected slopes to a percent max value (% Emax). The % Emax values for each compound series were plotted versus the log of the concentration and fit to a 4-parameter logistical equation with no fixed parameters.
(§5) Potency is reported as the IC50 resulting from the curve fit.

A further data set has as its target T2, human mGlu2 (Homo sapiens, UniProt Q14416).
T2 construct: expressed in transfected cells; host or cells: HEK-293
Kind of data set: mGlu2 GIRK cell-based thallium flux assay. The settings on record: HEK-293 co-expressing human mGlu2 and GIRK; EC80 glutamate. As for the experimental part: as §1, §2, §3, §4, §5

Data set [1] relates to normal animals. As to conditions: cited from earlier work.
In data set [2] the test system is olfactory bulbectomized rats. The settings on record: repeated administration for 14 days; cited from earlier work.
For data set [3], the system named is normal animals. The settings on record: cited from earlier work. This is another data set of the same source.
For data set [4], the system named is social isolation-reared mice. The settings on record: cited from earlier work.
The next data set has as its system mice. As to conditions: treated mice; cited from earlier work.
The conditions of data set [5]: treatment for 7 days; cited from earlier work.
The conditions of data set [6]: in vivo; cited from earlier work.
Another data set concerns Helpless (H) mice. The settings on record: cited from earlier work; for activity in the tail suspension test: Helpless (H) mice.
The subject of data set [7] is Aβ-induced neurodegeneration. The settings on record: cited from earlier work.
The subject of the next data set is C57Bl6/J mice. As to conditions: cited from earlier work.
For data set [8], the system named is central mGlu2 and mGlu3 receptors. The settings on record: in vivo; cited from earlier work.
The next data set relates to group II mGlu receptors. The settings on record: cited from earlier work.

SMILES strings stand for the structures. Read-outs that look alike come from different tables or passages of the source.

Usually IC50 stands for the concentration needed to halve the response being measured. Higher therefore signals lower potency.

T1 sequence (Q14832 23-879): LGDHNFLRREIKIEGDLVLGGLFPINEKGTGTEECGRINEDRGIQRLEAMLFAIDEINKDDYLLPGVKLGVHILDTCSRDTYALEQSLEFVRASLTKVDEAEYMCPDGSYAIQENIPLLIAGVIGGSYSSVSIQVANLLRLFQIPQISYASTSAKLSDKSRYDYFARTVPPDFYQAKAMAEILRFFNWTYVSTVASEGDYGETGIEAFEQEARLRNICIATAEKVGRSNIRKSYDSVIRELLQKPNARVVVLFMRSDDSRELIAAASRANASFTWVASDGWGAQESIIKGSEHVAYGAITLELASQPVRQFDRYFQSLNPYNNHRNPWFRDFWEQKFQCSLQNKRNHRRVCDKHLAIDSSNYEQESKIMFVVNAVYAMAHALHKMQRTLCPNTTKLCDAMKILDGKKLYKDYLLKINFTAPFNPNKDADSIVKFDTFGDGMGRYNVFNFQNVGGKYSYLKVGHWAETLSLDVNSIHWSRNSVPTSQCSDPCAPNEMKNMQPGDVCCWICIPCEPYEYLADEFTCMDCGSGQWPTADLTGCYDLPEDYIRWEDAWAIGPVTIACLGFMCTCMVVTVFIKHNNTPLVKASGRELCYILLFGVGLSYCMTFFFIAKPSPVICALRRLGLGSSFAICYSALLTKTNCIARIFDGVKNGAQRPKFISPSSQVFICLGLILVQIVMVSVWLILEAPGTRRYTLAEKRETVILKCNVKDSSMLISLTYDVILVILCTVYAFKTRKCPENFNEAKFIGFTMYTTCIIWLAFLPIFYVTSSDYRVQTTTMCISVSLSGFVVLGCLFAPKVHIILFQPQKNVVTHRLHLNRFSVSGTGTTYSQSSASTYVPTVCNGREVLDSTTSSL
T2 sequence (Q14416 19-872): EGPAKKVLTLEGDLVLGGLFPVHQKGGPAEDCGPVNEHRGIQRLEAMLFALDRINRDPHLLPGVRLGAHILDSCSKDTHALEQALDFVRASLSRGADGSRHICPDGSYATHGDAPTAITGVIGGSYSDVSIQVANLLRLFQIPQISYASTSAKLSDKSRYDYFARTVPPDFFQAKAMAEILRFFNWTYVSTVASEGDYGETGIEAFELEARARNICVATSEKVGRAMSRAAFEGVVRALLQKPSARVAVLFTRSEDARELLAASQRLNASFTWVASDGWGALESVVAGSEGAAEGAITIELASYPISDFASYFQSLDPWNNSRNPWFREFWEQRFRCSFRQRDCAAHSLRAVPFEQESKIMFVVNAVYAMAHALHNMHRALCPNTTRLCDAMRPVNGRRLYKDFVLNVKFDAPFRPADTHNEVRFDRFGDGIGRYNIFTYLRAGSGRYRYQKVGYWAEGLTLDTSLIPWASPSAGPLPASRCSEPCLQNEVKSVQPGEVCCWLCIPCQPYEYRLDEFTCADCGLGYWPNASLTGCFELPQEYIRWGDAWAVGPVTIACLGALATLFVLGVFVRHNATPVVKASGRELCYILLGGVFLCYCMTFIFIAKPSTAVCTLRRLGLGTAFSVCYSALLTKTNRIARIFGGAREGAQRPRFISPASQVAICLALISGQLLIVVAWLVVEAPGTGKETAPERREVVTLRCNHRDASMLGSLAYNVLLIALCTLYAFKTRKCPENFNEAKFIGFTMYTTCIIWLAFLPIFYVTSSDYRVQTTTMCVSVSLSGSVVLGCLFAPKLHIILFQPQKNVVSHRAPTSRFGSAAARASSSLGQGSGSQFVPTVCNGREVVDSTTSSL

As for `Cc1csc(COc2cc3n[nH]c(=O)n3cc2-c2ccc(F)cc2)n1` [Compound 6, 6-(4-fluorophenyl)-7-((4-methylthiazol-2-yl)methoxy)-[1,2,4]triazolo[4,3-a]pyridin-3(2H)-one], the “Human mGlu3 GIRK IC50” value on human mGlu3 is “Inactive”. Moreover, the IC50 against human mGlu2 was found to be 169 nM.
In the case of `COc1ccc(-c2cn3c(=O)[nH]nc3cc2OCc2ccn(C)n2)c(F)c1` [Compound 7, 6-(2-fluoro-4-methoxyphenyl)-7-((1-methyl-1H-pyrazol-3-yl)methoxy)-[1,2,4]triazolo[4,3-a]pyridin-3(2H)-one], the “Human mGlu3 GIRK IC50” value at human mGlu3 was “Inactive”. For the same molecule, the half-maximal inhibitory concentration (IC50) at human mGlu2 amounted to 89 nM.
For `COc1ccc(-c2cn3c(=O)[nH]nc3cc2OCc2cc(C)n(C)n2)c(F)c1` [Compound 10, 7-((1,5-dimethyl-1H-pyrazol-3-yl)methoxy)-6-(2-fluoro-4-methoxyphenyl)-[1,2,4]triazolo[4,3-a]pyridin-3(2H)-one], the “Human mGlu3 GIRK IC50” value on human mGlu3 is reported as “Inactive”. At human mGlu2, the IC50 was determined as 119 nM.
As for `Cn1ccc(COc2cc3n[nH]c(=O)n3cc2-c2ccc(F)cc2)n1` [Compound 1, 6-(4-fluorophenyl)-7-((1-methyl-1H-pyrazol-3-yl)methoxy)-[1,2,4]triazolo[4,3-a]pyridin-3(2H)-one], the “Human mGlu3 GIRK IC50” value on human mGlu3 is reported as “Inactive”. This molecule also had an IC50 against human mGlu2 of 771 nM.
As to `N[C@]1(C(=O)O)[C@H]2[C@@H](C[C@H]1OCc1ccc(Cl)c(Cl)c1)[C@]2(F)C(=O)O` [MGS0039], the “Antidepressant-like effects in mouse TST” value in the data set on normal animals [1] is recorded as “Antidepressant-like effects”. In addition, in [2], the “hyperactivity in the open field test” value was “attenuated the hyperactivity” and the “learning deficit in the passive avoidance test” value is on record as “attenuated the learning deficit”. Moreover, in the data set with normal animals [3], the “Antidepressant-like effects in rat FST” value is recorded as “Antidepressant-like effects”. Moreover, in [4], the “immobility in the FST” value is “reversed the increased immobility”. In the data set with mice, the marble-burying behavior entry was “reduced marble-burying behavior in a significant and dose dependent manner”; the spontaneous locomotor activity result was “no significant change”. Moreover, in data set [5], the “number of escape failures” value was “significantly reduced”. Moreover, in data set [6], the freezing behavior entry is “significantly decreased”.
As to `Cc1nc(COc2cc3n[nH]c(=O)n3cc2-c2ccc(F)cc2)cs1` [Compound 3, 6-(4-fluorophenyl)-7-((2-methylthiazol-4-yl)methoxy)-[1,2,4]triazolo[4,3-a]pyridin-3(2H)-one], the “Human mGlu3 GIRK IC50” value on human mGlu3 is on record as “Inactive”. On human mGlu2, it took 104 nM to reach half-maximal inhibition (IC50).
`CNCCC(Oc1ccc(C(F)(F)F)cc1)c1ccccc1` (centres unmarked) [fluoxetine]: in the data set with Helpless (H) mice (chronic (21 days) treatment), the “antidepressant effect in helpless mice” value was “full antidepressant effect”.
As to `CCS(=O)(=O)N(Cc1cccnc1)c1cccc(-c2ccc(C#N)cc2)c1` [LY566332], the Aβ-induced neurodegeneration result in data set [7] is listed as “amplified”.
Regarding `COc1ccc(-c2cn3c(=O)[nH]nc3cc2OCc2csc(C)n2)c(F)c1` [Compound 8, 6-(2-fluoro-4-methoxyphenyl)-7-((2-methylthiazol-4-yl)methoxy)-[1,2,4]triazolo[4,3-a]pyridin-3(2H)-one], on human mGlu3, the “Human mGlu3 GIRK IC50” value is on record as “Inactive”. At human mGlu2, this molecule showed an IC50 of 54.2 nM.
With `N[C@](CC1c2ccccc2Oc2ccccc21)(C(=O)O)[C@H]1C[C@@H]1C(=O)O` [LY341495], the “immobility time in the FST” value with C57Bl6/J mice was “dose-dependently reduced”. Further, in [7], the “amplification of Aβ-induced neurodegeneration by LY566332” value was “prevented”. In addition, the “Antidepressant-like effects in mouse TST” value with normal animals [1] is reported as “Antidepressant-like effects”. The “Antidepressant-like effects in rat FST” value with normal animals [3] is recorded as “Antidepressant-like effects”. For the same molecule, the “hypolocomotor effect of mGlu2/3 agonist (LY379268)” value in [8] is on record as “achieved the same result”. The marble-burying behavior entry in the data set with mice was “significantly reduce marble-burying behavior”. The “activity in the tail suspension test” value with Helpless (H) mice is recorded as “active”. The “antidepressant effect in helpless mice” value in the data set on Helpless (H) mice (acute administration) is “potent antidepressant effect”.
Consider `COc1ccc(-c2cn3c(=O)[nH]nc3cc2OCc2ccn(C)n2)cc1` [Compound 11, 6-(4-methoxyphenyl)-7-((1-methyl-1H-pyrazol-3-yl)methoxy)-[1,2,4]triazolo[4,3-a]pyridin-3(2H)-one], for which the “Human mGlu3 GIRK IC50” value at human mGlu3 is listed as “Inactive”. On human mGlu2, the concentration for half-maximal inhibition (IC50) is 85.8 nM.
For the molecule `CCCCCCCOC(=O)[C@@]1(F)[C@@H]2C[C@@H](OCc3ccc(Cl)c(Cl)c3)[C@@](N)(C(=O)O)[C@@H]21` [BCI-838], the “duration of inhibition of group II mGlu receptors by brain concentration of active metabolite BCI-632” value with group II mGlu receptors (once-daily oral dosing) was 22 h. Further, in the data set with group II mGlu receptors (three months of treatment), the “Dutch APP transgene-associated learning and memory impairment” value was “reversed”; the anxiolytic effects entry is given as “provided anxiolytic effects”. Besides, the “levels of monomeric and oAβ peptides in the hippocampus and cortex” value in the data set with group II mGlu receptors (three months of treatment, two AD mouse models) is recorded as “decreased”. In addition, the “hippocampal progenitor cell proliferation” value in the data set with group II mGlu receptors (wild-type and Alzheimer's diseased mice, 3 months) was “stimulated”.
As to `COc1ccc(-c2cn3c(=O)[nH]nc3cc2OCc2nccn2C)c(F)c1` [Compound 9, 6-(2-fluoro-4-methoxyphenyl)-7-((1-methyl-1H-imidazol-2-yl)methoxy)-[1,2,4]triazolo[4,3-a]pyridin-3(2H)-one], at human mGlu3, the “Human mGlu3 GIRK IC50” value is “Inactive”. For the same molecule, the concentration for half-maximal inhibition (IC50) on human mGlu2 was determined as 216 nM.
As for `CN1C(=O)CN=C(c2ccccc2)c2cc(Cl)ccc21` [diazepam], in data set [6], the freezing behavior result is listed as “significantly decreased”.
As for `Cc1cc(-c2cccc(C3=Nc4cc(C)c(C(F)(F)F)cc4NC(=O)C3)c2)cc(C)n1` [RO4491533], the “immobility time in the FST” value in the data set with C57Bl6/J mice is on record as “dose-dependently reduced”. Moreover, the “hypolocomotor effect of mGlu2/3 agonist (LY379268)” value in [8] is “reversed the hypolocomotor effect”. In addition, the “activity in the tail suspension test” value in the data set with Helpless (H) mice is reported as “active”.

Values taken from patent publication US20240208983A1, “1,2,4-TRIAZOLO[4,3-A]PYRIDINE DERIVATIVES AS NEGATIVE ALLOSTERIC MODULATORS OF METABOTROPIC GLUTAMATE RECEPTOR 2” (Vanderbilt University, priority 2021, published 2024).
